Experimental data reported in patent US20240189449A1, “LIPID NANOPARTICLES AND POLYNUCLEOTIDES ENCODING ORNITHINE TRANSCARBAMYLASE FOR THE TREATMENT OF ORNITHINE TRANSCARBAMYLASE DEFICIENCY” (ModernaTX, Inc., priority 2021, published 2024).
Marks after values point to notes of the source that are not given here.

Tests used:
CD-1 mice [1] = test: hEPO expression in serum after IV lipid nanoparticles with hEPO mRNA, CD-1 mice; assay type: in vivo; conditions: LNP with DSPC, cholesterol, Compound I; for Mean 6 hr hEPO Concentration: serum 6 hours after injection
Method: To assess potency of expression and metabolic stability of lipids of the disclosure, hepatocyte protein expression (hEPO) was measured following administration to mice of a nanoparticle of the disclosure.
Lipid nanoparticles including DSPC as a phospholipid, cholesterol as a structural lipid, Compound I as a PEG lipid, an ionizable amino lipid of Formula (II), and an mRNA encoding hEPO were intravenously administered to CD-1 mice. The concentration of hEPO in serum was tested at 6 hours after injection.

CD-1 mice [2] = test: Parent lipid remaining in liver at 24 h, CD-1 mice (hEPO mRNA LNPs); assay type: in vivo; conditions: for Approx. Percent Total Dose of Parent Lipid Remaining at 24 h: calculation assumes a 25 g mouse with a 1.5 g liver

| Parent Lipid Remaining (nmol/g liver tissue) at 24 h (CD-1 mice [2]) | Approx. Percent Total Dose of Parent Lipid Remaining at 24 h (CD-1 mice [2]) | SMILES | hEPO AUC (CD-1 mice [1]) | Mean 6 hr hEPO Concentration (CD-1 mice [1]) |
| --- | --- | --- | --- | --- |
| 51 ± 4 nmol/g liver tissue | 53% | CCCCCCCCC(CCCCCC)COC(=O)CCCCCN(CCCCCCCC(=O)OC(CC)CCCCCCCC)CCCNc1c(NC)c(=O)c1=O (stereo not shown) [Compound 15] | 4.31E+07 | 2933644 mIU/mL |
| 77 ± 3 nmol/g liver tissue | 79% | CCCCCCCCC(CCCCCCCC)OC(=O)CCCCCCCN(CCCCCCCC(=O)OCC(CCCCC)CCCCCCC)CCCNc1c(NC)c(=O)c1=O (stereo not shown) [Compound 16] | 2.18E+07 | 1461176 mIU/mL |
| 35 ± 5 nmol/g liver tissue | 36% | CCCCCCCCC(CCCCCCCC)OC(=O)CCCCCCCN(CCCCCCCC(=O)OCCC(CCCCCC)C(C)C)CCCNc1c(NC)c(=O)c1=O (stereo not shown) [Compound 17] | 2.61E+07 | 1777875 mIU/mL |
| 73 ± 6 nmol/g liver tissue | 75% | CCCCCCCCC(CCCCCCCC)OC(=O)CCCCCCCN(CCCCCCCC(=O)OCC(CCCCCCC)C(C)C)CCCNc1c(NC)c(=O)c1=O (stereo not shown) [Compound 19] | 3.11E+07 | 2089101 mIU/mL |
| 65 ± 5 nmol/g liver tissue | 67% | CCCCCCCCC(CCCCCCCC)OC(=O)CCCCCCCN(CCCCCCCC(=O)OCCC(CCCC)CCCCCC)CCCNc1c(NC)c(=O)c1=O (stereo not shown) [Compound 20] | 2.13E+07 | 1414856 mIU/mL |
| 13 ± 2 nmol/g liver tissue | 9% | CCCCCCCCC(CCCCCCCC)OC(=O)CCCCCCCN(CCO)CCCCCCCC(=O)OCCC(CCCCCC)CCCCCC [Compound 21] | 7.29E+06 | 458772 mIU/mL |
| 24 ± 3 nmol/g liver tissue | 18% | CCCCCCC(CCCCCC)CCOC(=O)CCCCCCCN(CCO)CCCCCCCC(=O)OCCC(CCCCCC)CCCCCC [Compound 23] | 1.40E+07 | 847586 mIU/mL |
| 141 ± 15 nmol/g liver tissue | >95%^b | CCCCCCCCC(CCCCCCCC)OC(=O)CCCCCCCN(CCCCCCCC(=O)OCCC(CCCCCC)CCCCCC)CCCNc1c(NC)c(=O)c1=O [Compound 26] | 7.52E+06 | 496951 mIU/mL |
| 58 ± 7 nmol/g liver tissue | 60% | CCCCCCC(CCCCCC)CCOC(=O)CCCCCCCN(CCCCCCCC(=O)OCCC(CCCCCC)CCCCCC)CCCNc1c(NC)c(=O)c1=O [Compound 28] | 1.44E+07 | 938332 mIU/mL |
| 66 ± 16 nmol/g liver tissue | 68% | CCCCCCCCC(CCCCCCCC)OC(=O)CCCCCCCN(CCCCCCCC(=O)OCCC(CCCCC)CCCCC)CCCNc1c(NC)c(=O)c1=O [Compound 29] | 1.23E+07 | 808734 mIU/mL |
| 2 ± 0.6 nmol/g liver tissue | <0.1% | CCCCCCCCC(CCCCCCCC)OC(=O)CCCCCCCN(CCO)CCCCCCCC(=O)OCCCC(CCCCC)CCCCC [Compound 31] | 7.72E+06 | 517841 mIU/mL |
| 69 ± 17 nmol/g liver tissue | 71% | CCCCCCCCC(CCCCCCCC)OC(=O)CCCCCCCN(CCCCCCCC(=O)OCCCC(CCCCC)CCCCC)CCCNc1c(NC)c(=O)c1=O [Compound 32] | 1.63E+06 | 111656 mIU/mL |
| 0.5 ± 0.3 nmol/g liver tissue | <0.1% | CCCCCC(CCCCC)CCCOC(=O)CCCCCCCN(CCO)CCCCCCCC(=O)OCCCC(CCCCC)CCCCC [Compound 33] | 5.89E+06 | 389395 mIU/mL |
| 12 ± 2 nmol/g liver tissue | 12% | CCCCCC(CCCCC)CCCOC(=O)CCCCCCCN(CCCCCCCC(=O)OCCCC(CCCCC)CCCCC)CCCNc1c(NC)c(=O)c1=O [Compound 34] | 3.01E+06 | 205437 mIU/mL |
| <0.1 nmol/g liver tissue | <0.1% | CCCCCCCCC(CCCCCCCC)OC(=O)CCCCCCCN(CCO)CCCCCCCC(=O)OCCC1CCC(CC)CC1 (stereo not shown) [Compound 35] | 1.72E+06 | 106485 mIU/mL |
| <0.1 nmol/g liver tissue | <0.1% | CCCCCCCCC(CCCCCCCC)OC(=O)CCCCCCCN(CCO)CCCCCCCC(=O)OCCC1CCC(CC)C1 (stereo not shown) [Compound 37] | 1.25E+06 | 85052 mIU/mL |
| 4 ± 1 nmol/g liver tissue | 4% | CCCCCCCCC(CCCCCCCC)OC(=O)CCCCCCCN(CCCCCCCC(=O)OCCC1CCC(CCC)CC1)CCCNc1c(NC)c(=O)c1=O (stereo not shown) [Compound 39] | 1.94E+06 | 129750 mIU/mL |

| Parent Lipid Remaining (nmol/g liver tissue) at 24 h (CD-1 mice [2]) | Approx. Percent Total Dose of Parent Lipid Remaining at 24 h (CD-1 mice [2]) | SMILES | hEPO AUC (CD-1 mice [1]) | Mean 6 hr hEPO Concentration (CD-1 mice [1]) |
| --- | --- | --- | --- | --- |
| 3 ± 0.3 nmol/g liver tissue | 3% | CCCCCCCCC(CCCCCCCC)OC(=O)CCCCCCCN(CCCCCCCC(=O)OCCC1CCC(CC)C1)CCCNc1c(NC)c(=O)c1=O (stereo not shown) [Compound 40] | 4.64E+06 | 303957 mIU/mL |
|  |  | CCCCCC(CCCCC)CCOC(=O)CCCCCCCN(CCCO)CCCCCCCC(=O)OCCC(CCCCC)CCCCC [Compound 42] |  | 1428145 mIU/mL |
|  |  | CCCCCC(CCCCC)CCOC(=O)CCCCCCCN(CCCCO)CCCCCCCC(=O)OCCC(CCCCC)CCCCC [Compound 44] |  | 1273871 mIU/mL |
|  |  | CCCCCCCCC(CCCCCCCC)OC(=O)CCCCCCCN(CCCO)CCCCCCCC(=O)OCCC(CCCC)CCCC [Compound 49] |  | 2385524 mIU/mL |
|  |  | CCCCCCCCC(CCCCCCCC)OC(=O)CCCCCCCN(CCCCO)CCCCCCCC(=O)OCCC(CCCC)CCCC [Compound 50] |  | 2617164 mIU/mL |
| 4 ± 0.6 nmol/g liver tissue | 4% | CCCCCC(CCCCC)CCOC(=O)CCCCCCCN(CCCCCCCC(=O)OCCC(CCC)CCC)CCCNc1c(NC)c(=O)c1=O [Compound 51] | 1.31E+07 | 1556494 mIU/mL |
| <1 nmol/g liver tissue | <1% | CCCCC(CCCC)CCOC(=O)CCCCCCCN(CCCCCCCC(=O)OCCC(CCC)CCC)CCCNc1c(NC)c(=O)c1=O [Compound 52] | 3.82E+06 | 564670 mIU/mL |
| <1 nmol/g liver tissue | <1% | CCCC(CCC)CCOC(=O)CCCCCCCN(CCCCCCCC(=O)OCCC(CCC)CCC)CCCNc1c(NC)c(=O)c1=O [Compound 53] | 6.63E+03 | 130324 mIU/mL |
| 12 ± 1 nmol/g liver tissue | 13% | CCCCCC(CCCCC)CCOC(=O)CCCCCCCN(CCCCCCCC(=O)OC(CCCCC)CCCCC)CCCNc1c(NC)c(=O)c1=O [Compound 57] | 1.60E+07 | 1238977 mIU/mL |
| 15 ± 2 nmol/g liver tissue | 15% | CCCCCC(CCCCC)CCOC(=O)CCCCCCCN(CCCCCCCC(=O)OC(CCCC)CCCC)CCCNc1c(NC)c(=O)c1=O [Compound 58] | 2.33E+07 | 1347883 mIU/mL |
| 8.5 ± 0.6 nmol/g liver tissue | 9 ± 0.8% | CCCCCCC(CCCCCC)OC(=O)CCCCCCCN(CCCCCCCC(=O)OCCC(CCCC)CCCC)CCCNc1c(NC)c(=O)c1=O [Compound 60] | 1.42E+07 | 1031398 mIU/mL |
| 1.8 ± 0.6 nmol/g liver tissue | 2 ± 0.9% | CCCCC(CCCC)CCOC(=O)CCCCCCCN(CCCCCCCC(=O)OC(CCCC)CCCC)CCCNc1c(NC)c(=O)c1=O [Compound 62] | 6.51E+06 | 475498 mIU/mL |
|  |  | CCCCCC(CCCCC)CCOC(=O)CCCCCCCN(CCO)CCCCCCCC(=O)OCCC(CCC)CCC [Compound 67] |  | 969620 mIU/mL |
|  |  | CCCCCC(CCCCC)OC(=O)CCCCCCCN(CCO)CCCCCCCC(=O)OCCC(CCC)CCC [Compound 68] |  | 488014 mIU/mL |
|  |  | CCCCC(CCCC)CCOC(=O)CCCCCCCN(CCO)CCCCCCCC(=O)OCCC(CCCC)CCCC [Compound 69] |  | 1572094 mIU/mL |
|  |  | CCCCCC(CCCCC)OC(=O)CCCCCCCN(CCO)CCCCCCCC(=O)OCCC(CCCC)CCCC [Compound 70] |  | 1479577 mIU/mL |
|  |  | CCCCCCC(CCCCCC)OC(=O)CCCCCCCN(CCO)CCCCCCCC(=O)OCCC(CCC)CCC [Compound 71] |  | 1921281 mIU/mL |
